From patent US9023789B2, “Amylin analogs and pharmaceutical compositions thereof” (Novo Nordisk A/S, priority 2012, dated 2015)
Numbered stars: 1 amine (or outer) side, 2 acyl side, 3 side chain; on linkers, the order of the positions; unused ones are H or OH. Bridge positions count the residues as written; N and C are the ends. Side chains are listed from the residue outwards. Peptide text beside a SMILES is read from it. * marks the point of attachment. C20 diacid = O=C(O)CCCCCCCCCCCCCCCCCCC(=O)*; γGlu = O=C(O)[C@H](CCC(=O)[*:2])N[*:1]; AEEA = NCCOCCOCC(=O)O

Tests used:
[1] = ASSAY (IX) pK, determination of T½ in mini-pig; format: in vivo; settings: male, Göttingen, minipig, plasma, iv, 2 nmol/kg
[2] = system: Male Sprague-Dawley rats; assay: ASSAY (XI) single subcutaneous administration, food intake monitored for 48 hours in rats; format: in vivo, rat; settings: for Food intake red (%) 0-24 h / Food intake red (%) 24-48 h: single s.c., compared to vehicle
Text: Assay (XI)—Effect from Single Subcutaneous Administration of Analogue on Plasma Calcium in Rats
Male Sprague-Dawley rats (Taconic Europe, ˜250 g at test date) were acclimatized to reversed day light cycle (lights on from 10 PM to 10 AM) and single housing in online food intake monitoring system (Ellegaard MBRose, Denmark) prior to study start. […] Data are illustrated in graphs as mean±SEM.

[3] = system: Male Wistar rats; assay: ASSAY (XII) effect from single subcutaneous administration on plasma calcium in rats; format: in vivo, rat; settings: for Plasma calcium red (%) 0-12 h (maximal): single s.c., compared to vehicle; for suppression of plasma calcium level relative to vehicle: monitored over 24 hours
Procedure: Assay (XII)—Effect from Single Subcutaneous Administration of Analogue on Plasma Calcium in Rats
Male Wistar rats (Taconic Europe, ˜250 g at test date) were acclimatized to handling prior to the study. Rats were divided in groups of five and subcutaneously dosed with test compound at time=0. At time T=−15 min; 1 h, 2 h, 4 h, 7 h, 12 h, and 24 h a blood sample was obtained and heparin stabilized plasma was analysed for total calcium (Cobas, Hitachi). Data are illustrated in graphs as mean±SEM.

SMILES	half-life [1]	Plasma calcium red (%) 0-12 h (maximal) ([3]; 30 nmol/kg)	Food intake red (%) 0-24 h ([2]; 30 nmol/kg)	Food intake red (%) 24-48 h ([2]; 30 nmol/kg)	also measured
CC[C@H](C)[C@H](NC(=O)[C@H](C)NC(=O)CNC(=O)[C@H](Cc1ccccc1)NC(=O)[C@H](CC(N)=O)NC(=O)[C@@H]1CCCN1C(=O)[C@H](CO)NC(=O)[C@H](CO)NC(=O)[C@H](Cc1c[nH]cn1)NC(=O)[C@H](CCCNC(=N)N)NC(=O)[C@H](CC(C)C)NC(=O)[C@H](Cc1ccccc1)NC(=O)[C@H](CC(N)=O)NC(=O)[C@H](C)NC(=O)[C@H](CC(C)C)NC(=O)[C@H](CCCNC(=N)N)NC(=O)[C@H](CCC(N)=O)NC(=O)[C@@H](NC(=O)[C@H](C)NC(=O)[C@@H]1CSSC[C@H](NC(=O)[C@@H](N)CCCCNC(=O)COCCOCCNC(=O)CC[C@H](NC(=O)CCCCCCCCCCCCCCCCCCC(=O)O)C(=O)O)C(=O)N[C@@H](CC(N)=O)C(=O)N[C@@H]([C@@H](C)O)C(=O)N[C@@H](C)C(=O)N[C@@H]([C@@H](C)O)C(=O)N1)[C@@H](C)O)C(=O)N1CCC[C@H]1C(=O)N[C@@H](CO)C(=O)N[C@@H](CO)C(=O)N[C@H](C(=O)N[C@@H](CC(N)=O)C(=O)N[C@H](C(=O)NCC(=O)N[C@@H](Cc1c[nH]cn1)C(=O)N[C@@H](CC(N)=O)C(=O)N[C@H](C(=O)N[C@@H](Cc1ccc(O)cc1)C(N)=O)[C@@H](C)O)C(C)C)[C@@H](C)O [Example 76] (H-K([AEEA-γGlu-C20 diacid])CNTATCATQRLANFLRHSSPNFGAIPSSTNVGHNTY-NH2; disulfide 2-7; N-terminus assumed)	76 h				
CC[C@H](C)[C@H](NC(=O)[C@H](C)NC(=O)CNC(=O)[C@H](Cc1ccccc1)NC(=O)[C@H](CC(N)=O)NC(=O)[C@@H]1CCCN1C(=O)[C@H](CO)NC(=O)[C@H](CO)NC(=O)[C@H](Cc1c[nH]cn1)NC(=O)[C@H](CCCNC(=N)N)NC(=O)[C@H](CC(C)C)NC(=O)[C@H](Cc1ccccc1)NC(=O)[C@H](Cc1c[nH]cn1)NC(=O)[C@H](C)NC(=O)[C@H](CC(C)C)NC(=O)[C@H](CCCNC(=N)N)NC(=O)[C@H](CCC(N)=O)NC(=O)[C@@H](NC(=O)[C@H](C)NC(=O)[C@@H]1CSSC[C@H](NC(=O)[C@@H](N)CCCCNC(=O)CC[C@H](NC(=O)CCCCCCCCCCCCCCCCCCC(=O)O)C(=O)O)C(=O)N[C@@H](CC(N)=O)C(=O)N[C@@H]([C@@H](C)O)C(=O)N[C@@H](C)C(=O)N[C@@H]([C@@H](C)O)C(=O)N1)[C@@H](C)O)C(=O)N1CCC[C@H]1C(=O)N[C@@H](CO)C(=O)N[C@@H](CO)C(=O)N[C@H](C(=O)N[C@@H](CC(N)=O)C(=O)N[C@H](C(=O)NCC(=O)N[C@@H](CCCNC(=N)N)C(=O)N[C@@H](CC(N)=O)C(=O)N[C@H](C(=O)N[C@@H](Cc1ccc(O)cc1)C(N)=O)[C@@H](C)O)C(C)C)[C@@H](C)O [Example 85] (H-K([γGlu-C20 diacid])CNTATCATQRLAHFLRHSSPNFGAIPSSTNVGRNTY-NH2; disulfide 2-7 (inferred); N-terminus assumed)	85 h				
CC[C@H](C)[C@H](NC(=O)[C@H](C)NC(=O)CNC(=O)[C@H](Cc1ccccc1)NC(=O)[C@H](CC(N)=O)NC(=O)[C@@H]1CCCN1C(=O)[C@H](CO)NC(=O)[C@H](CO)NC(=O)[C@H](Cc1c[nH]cn1)NC(=O)[C@H](CCCNC(=N)N)NC(=O)[C@H](CC(C)C)NC(=O)[C@H](Cc1ccccc1)NC(=O)[C@H](CC(N)=O)NC(=O)[C@H](C)NC(=O)[C@H](CC(C)C)NC(=O)[C@H](CCCNC(=N)N)NC(=O)[C@H](CCC(N)=O)NC(=O)[C@@H](NC(=O)[C@H](C)NC(=O)[C@@H]1CSSC[C@H](NC(=O)[C@@H](N)CCCCNC(=O)CC[C@H](NC(=O)CCCCCCCCCCCCCCCCCCC(=O)O)C(=O)O)C(=O)N[C@@H](CC(N)=O)C(=O)N[C@@H]([C@@H](C)O)C(=O)N[C@@H](C)C(=O)N[C@@H]([C@@H](C)O)C(=O)N1)[C@@H](C)O)C(=O)N1CCC[C@H]1C(=O)N[C@@H](CO)C(=O)N[C@@H](CO)C(=O)N[C@H](C(=O)N[C@@H](CC(N)=O)C(=O)N[C@H](C(=O)NCC(=O)N[C@@H](Cc1c[nH]cn1)C(=O)N[C@@H](CC(N)=O)C(=O)N[C@H](C(=O)N[C@@H](Cc1ccc(O)cc1)C(N)=O)[C@@H](C)O)C(C)C)[C@@H](C)O [Example 77]	81 h				
CC[C@H](C)[C@H](NC(=O)[C@H](C)NC(=O)CNC(=O)[C@H](Cc1ccccc1)NC(=O)[C@H](CC(N)=O)NC(=O)[C@@H]1CCCN1C(=O)[C@H](CO)NC(=O)[C@H](CO)NC(=O)[C@H](Cc1c[nH]cn1)NC(=O)[C@H](CCCNC(=N)N)NC(=O)[C@H](CC(C)C)NC(=O)[C@H](Cc1ccccc1)NC(=O)[C@H](CC(=O)O)NC(=O)[C@H](C)NC(=O)[C@H](CC(C)C)NC(=O)[C@H](CCCNC(=N)N)NC(=O)[C@H](CCC(N)=O)NC(=O)[C@@H](NC(=O)[C@H](C)NC(=O)[C@@H]1CSSC[C@H](NC(=O)[C@@H](N)CCCCNC(=O)CC[C@H](NC(=O)CC[C@H](NC(=O)CCCCCCCCCCCCCCCCCCC(=O)O)C(=O)O)C(=O)O)C(=O)N[C@@H](CC(N)=O)C(=O)N[C@@H]([C@@H](C)O)C(=O)N[C@@H](C)C(=O)N[C@@H]([C@@H](C)O)C(=O)N1)[C@@H](C)O)C(=O)N1CCC[C@H]1C(=O)N[C@@H](CO)C(=O)N[C@@H](CO)C(=O)N[C@H](C(=O)N[C@@H](CC(N)=O)C(=O)N[C@H](C(=O)NCC(=O)N[C@@H](CO)C(=O)N[C@@H](CC(=O)O)C(=O)N[C@H](C(=O)N[C@@H](Cc1ccc(O)cc1)C(N)=O)[C@@H](C)O)C(C)C)[C@@H](C)O [Example 2] (H-K([γGlu-γGlu-C20 diacid])CNTATCATQRLADFLRHSSPNFGAIPSSTNVGSDTY-NH2; disulfide 2-7; N-terminus assumed)			72%	62%	Food intake red (%) 0-24 h ([2]; 3 nmol/kg): 39%; Food intake red (%) 24-48 h ([2]; 3 nmol/kg): 10%; Plasma calcium red (%) 0-12 h (maximal) ([3]; 100 nmol/kg): 9%; suppression of plasma calcium level relative to vehicle ([3]; single subcutaneous 100 nmol/kg): does not trigger a notable suppression of the calcium level

The next lines start with results.

half-life [1]	Plasma calcium red (%) 0-12 h (maximal) ([3]; 30 nmol/kg)	SMILES	Food intake red (%) 0-24 h ([2]; 30 nmol/kg)	Food intake red (%) 24-48 h ([2]; 30 nmol/kg)	also measured
	11%	CC[C@H](C)[C@H](NC(=O)[C@H](C)NC(=O)CNC(=O)[C@H](Cc1ccccc1)NC(=O)[C@H](CC(N)=O)NC(=O)[C@@H]1CCCN1C(=O)[C@H](CO)NC(=O)[C@H](CO)NC(=O)[C@H](Cc1c[nH]cn1)NC(=O)[C@H](CCCNC(=N)N)NC(=O)[C@H](CC(C)C)NC(=O)[C@H](Cc1ccccc1)NC(=O)[C@H](CCC(=O)O)NC(=O)[C@H](C)NC(=O)[C@H](CC(C)C)NC(=O)[C@H](CCCNC(=N)N)NC(=O)[C@H](CCC(N)=O)NC(=O)[C@@H](NC(=O)[C@H](C)NC(=O)[C@@H]1CSSC[C@H](NC(=O)[C@@H](N)CCCCNC(=O)CC[C@H](NC(=O)CC[C@H](NC(=O)CCCCCCCCCCCCCCCCCCC(=O)O)C(=O)O)C(=O)O)C(=O)N[C@@H](CC(N)=O)C(=O)N[C@@H]([C@@H](C)O)C(=O)N[C@@H](C)C(=O)N[C@@H]([C@@H](C)O)C(=O)N1)[C@@H](C)O)C(=O)N1CCC[C@H]1C(=O)N[C@@H](CO)C(=O)N[C@@H](CO)C(=O)N[C@H](C(=O)N[C@@H](CC(N)=O)C(=O)N[C@H](C(=O)NCC(=O)N1CCC[C@H]1C(=O)N[C@@H](Cc1c[nH]cn1)C(=O)N[C@H](C(=O)N[C@@H](Cc1ccc(O)cc1)C(N)=O)[C@@H](C)O)C(C)C)[C@@H](C)O [Example 124] (H-K([γGlu-γGlu-C20 diacid])CNTATCATQRLAEFLRHSSPNFGAIPSSTNVGPHTY-NH2; disulfide 2-7 (inferred))	73%	38%	Plasma calcium red (%) 0-12 h (maximal) ([3]; 10 nmol/kg): 3%
	7%	CC[C@H](C)[C@H](NC(=O)[C@H](C)NC(=O)CNC(=O)[C@H](Cc1ccccc1)NC(=O)[C@H](CC(N)=O)NC(=O)[C@@H]1CCCN1C(=O)[C@H](CO)NC(=O)[C@H](CO)NC(=O)[C@H](Cc1c[nH]cn1)NC(=O)[C@H](CCCNC(=N)N)NC(=O)[C@H](CC(C)C)NC(=O)[C@H](Cc1ccccc1)NC(=O)[C@H](CCC(=O)O)NC(=O)[C@H](C)NC(=O)[C@H](CC(C)C)NC(=O)[C@H](CCCNC(=N)N)NC(=O)[C@H](CCC(N)=O)NC(=O)[C@@H](NC(=O)[C@H](C)NC(=O)[C@@H]1CSSC[C@H](NC(=O)[C@@H](N)CCCCNC(=O)CC[C@H](NC(=O)CC[C@H](NC(=O)CCCCCCCCCCCCCCCCCCC(=O)O)C(=O)O)C(=O)O)C(=O)N[C@@H](CC(N)=O)C(=O)N[C@@H]([C@@H](C)O)C(=O)N[C@@H](C)C(=O)N[C@@H]([C@@H](C)O)C(=O)N1)[C@@H](C)O)C(=O)N1CCC[C@H]1C(=O)N[C@@H](CO)C(=O)N[C@@H](CO)C(=O)N[C@H](C(=O)N[C@@H](CC(N)=O)C(=O)N[C@H](C(=O)NCC(=O)N[C@@H](CO)C(=O)N[C@@H](CCCNC(=N)N)C(=O)N[C@H](C(=O)N[C@@H](Cc1ccc(O)cc1)C(N)=O)[C@@H](C)O)C(C)C)[C@@H](C)O [Example 89] (H-K([γGlu-γGlu-C20 diacid])CNTATCATQRLAEFLRHSSPNFGAIPSSTNVGSRTY-NH2; disulfide 2-7 (inferred); N-terminus assumed)	46%	37%	food intake monitored over 48 hours ([2]; single subcutaneous administration, 30 nmol/kg, versus vehicle): reduce food intake; suppression of plasma calcium level relative to vehicle ([3]; single subcutaneous 30 nmol/kg): None of the example compounds at 30 nmol/kg trigger a notable suppression of the calcium level; suppression of plasma calcium level relative to vehicle ([3]; single subcutaneous 1000 nmol/kg): induces a more pronounced suppression of the calcium level
